Earlier results as cited in patent publication US20080161402A1, “Targeting the Reverse Mode of the Na+/Ca2+ Exchanger For the Treatment of Neurodegenerative Conditions” (ALLERGAN, INC., priority 2004, published 2008).

Tested on: Na+/Ca2+ exchanger
Conditions: variety of cell types including neurons; reverse vs forward mode

**Q.** With `CS(=O)(=O)O.N=C(N)SCCc1ccc(OCc2ccc([N+](=O)[O-])cc2)cc1` [KB-R743, 2-[2-[4-(4-nitorbenzyloxy)phenyl]ethyl]isothiourea methanesulfonte] as the compound, how does the “mode selectivity of Na+/Ca2+ exchanger block” value read?
**A.** The value was “preferentially block the reverse mode”.
